Reference: ChEMBL document CHEMBL4715808, “Discovery of (1S,2R,3S,4S,5R,6R)-2-Amino-3-[(3,4-difluorophenyl)sulfanylmethyl]-4-hydroxy-bicyclo[3.1.0]hexane-2,6-dicarboxylic Acid Hydrochloride (LY3020371·HCl): A Potent, Metabotropic Glutamate 2/3 Receptor Antagonist with Antidepressant-Like Activity” (J Med Chem, 2016)

Key:
[1] = biological target: T1, Metabotropic glutamate receptor 2 (Homo sapiens, UniProt Q14416)
Description: Displacement of [3H]-LY459477 from recombinant human mGlu2 receptor expressed in hamster AV12 cell membranes co-expressing rat EAAT1 incubated for 90 mins by top count scintillation method

[2] = biological target: T1, Metabotropic glutamate receptor 2; remark: listed apart in the source
Description: Antagonist activity at human recombinant mGlu2 receptor stably expressed in golden hamster AV12 cells co-expressing rat EAAT1 assessed as reduction in DCG IV-induced inhibition of forskolin-stimulated cAMP accumulation preincubated for 20 mins followed by incubation with cAMP-d2 conjugate and anti-cAMP cryptate for 1 hr by HTRF assay

[3] = biological target: T2, Metabotropic glutamate receptor 3 (Homo sapiens, UniProt Q14832); test: Antagonist activity at human recombinant mGlu3 receptor stably expressed in golden hamster AV12 cells co-expressing rat EAAT1 assessed as reduction in DCG IV-induced inhibition of forskolin-stimulated cAMP accumulation preincubated for 20 mins followed by incubation with cAMP-d2 conjugate and anti-cAMP cryptate for 1 hr by HTRF assay; type: functional, cell-based
T2 sequence (Q14832 whole entry): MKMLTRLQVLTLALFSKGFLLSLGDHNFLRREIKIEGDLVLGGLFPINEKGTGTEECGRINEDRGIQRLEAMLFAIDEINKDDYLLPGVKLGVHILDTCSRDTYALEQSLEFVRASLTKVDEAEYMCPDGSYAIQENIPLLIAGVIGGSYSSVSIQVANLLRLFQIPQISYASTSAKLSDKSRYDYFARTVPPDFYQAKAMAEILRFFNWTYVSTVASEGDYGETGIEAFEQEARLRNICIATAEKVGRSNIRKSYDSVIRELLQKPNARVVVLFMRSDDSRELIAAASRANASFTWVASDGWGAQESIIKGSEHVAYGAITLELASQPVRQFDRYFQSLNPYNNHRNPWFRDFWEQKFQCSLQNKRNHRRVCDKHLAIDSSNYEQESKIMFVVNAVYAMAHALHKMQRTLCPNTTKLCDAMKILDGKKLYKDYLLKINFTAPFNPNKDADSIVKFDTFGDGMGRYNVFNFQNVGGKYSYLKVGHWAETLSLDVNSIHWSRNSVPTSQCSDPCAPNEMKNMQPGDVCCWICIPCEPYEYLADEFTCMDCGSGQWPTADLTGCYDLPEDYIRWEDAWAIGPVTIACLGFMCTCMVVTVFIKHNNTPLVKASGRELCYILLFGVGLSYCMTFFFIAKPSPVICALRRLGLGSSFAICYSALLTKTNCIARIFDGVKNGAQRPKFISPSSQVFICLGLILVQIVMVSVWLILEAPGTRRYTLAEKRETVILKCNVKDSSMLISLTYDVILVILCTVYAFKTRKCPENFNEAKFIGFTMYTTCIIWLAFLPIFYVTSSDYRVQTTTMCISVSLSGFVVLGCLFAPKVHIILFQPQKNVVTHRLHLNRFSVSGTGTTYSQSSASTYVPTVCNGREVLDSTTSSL

[4] = biological target: T2, Metabotropic glutamate receptor 3; test: Displacement of [3H]-LY459477 from recombinant human mGlu3 receptor expressed in hamster AV12 cell membranes co-expressing rat EAAT1 incubated for 90 mins by top count scintillation method; design: species or system Cell membrane

T1 sequence (Q14416 whole entry): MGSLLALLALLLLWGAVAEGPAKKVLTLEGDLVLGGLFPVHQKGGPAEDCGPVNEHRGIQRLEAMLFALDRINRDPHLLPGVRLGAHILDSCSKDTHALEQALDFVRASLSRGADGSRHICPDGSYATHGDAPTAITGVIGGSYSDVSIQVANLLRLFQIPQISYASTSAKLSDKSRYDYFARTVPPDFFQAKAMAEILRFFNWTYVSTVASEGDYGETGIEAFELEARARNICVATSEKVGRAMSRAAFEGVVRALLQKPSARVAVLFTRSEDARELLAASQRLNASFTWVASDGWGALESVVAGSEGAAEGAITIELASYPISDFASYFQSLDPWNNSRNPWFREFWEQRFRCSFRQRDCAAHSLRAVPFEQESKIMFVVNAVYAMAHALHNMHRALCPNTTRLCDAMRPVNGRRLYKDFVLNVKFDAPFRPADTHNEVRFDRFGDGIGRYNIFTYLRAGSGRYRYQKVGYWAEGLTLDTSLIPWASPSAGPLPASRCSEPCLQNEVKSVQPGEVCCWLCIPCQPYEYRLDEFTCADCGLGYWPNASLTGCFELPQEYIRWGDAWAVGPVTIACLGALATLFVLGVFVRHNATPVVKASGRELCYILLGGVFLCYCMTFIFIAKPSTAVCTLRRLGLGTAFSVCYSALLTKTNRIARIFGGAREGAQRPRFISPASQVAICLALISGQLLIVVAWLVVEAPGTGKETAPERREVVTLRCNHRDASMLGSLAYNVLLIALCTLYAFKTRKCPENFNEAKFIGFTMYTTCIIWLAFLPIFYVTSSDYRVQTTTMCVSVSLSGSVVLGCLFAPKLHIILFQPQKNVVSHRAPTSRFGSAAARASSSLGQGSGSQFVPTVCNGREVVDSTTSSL

Row | Compound | Ki [1] [nM] | IC50 [2] [nM] | IC50 [3] [nM] | Ki [4] [nM]
1 | Cc1cc(SC[C@@H]2[C@@H](N)[C@H]3[C@H](C(=O)O)[C@H]3[C@]2(N)C(=O)O)ccc1F | 24 | 45.4 | 163 | 36.1
2 | N[C@]1(C(=O)O)[C@@H]2[C@@H](C(=O)O)[C@@H]2[C@H](O)[C@@H]1CSc1ccccc1 | – | – | 2410 | 251
3 | N[C@]1(C(=O)O)[C@@H]2[C@@H](C(=O)O)[C@@H]2[C@H](O)[C@H]1CSc1cccc(F)c1 | 43.7 | 76.2 | 272 | 25.1

Results, then the compound that gave them:

Row | Ki [1] [nM] | IC50 [2] [nM] | IC50 [3] [nM] | Ki [4] [nM] | Compound
4 | 8.4 | 9.8 | 56.5 | 9.4 | N[C@]1(C(=O)O)[C@@H]2[C@@H](C(=O)O)[C@@H]2[C@H](O)[C@H]1CSc1ccc(Cl)c(Cl)c1
5 | 20.5 | 49.4 | 62.3 | 16.3 | N[C@]1(C(=O)O)[C@@H]2[C@@H](C(=O)O)[C@@H]2[C@H](O)[C@H]1CSCc1ccc(Cl)c(Cl)c1
